Measurements from patent US20110257145A1, “METHOD OF TREATING NEUROLOGICAL DISEASES” (THE BOARD OF TRUSTEES OF THE UNIVERSITY OF ILLINOIS, priority 2008, published 2011).
Like-named read-outs stand apart in the source and are kept apart here.

How the values were obtained:
[1] = system: HEK293 cells stably transfected with human APP; test: sAPPα ELISA; format: cell-based
Procedure: (§1) sAPPα and Aβ40 detection: […] cell lines stably transfected with human APP were maintained in Dulbecco's modified Eagle's medium (DMEM) with 10% fetal bovine serum (FBS). Cells were seeded onto 6-well plates, and incubated at 37° C. overnight. Compounds 9-14 were first dissolved in dimethyl sulfoxide (DMSO) as a 10 mM stock and diluted into the respective concentrations with fresh DMEM with 10% FBS. After exposure overnight, the cell medium was replaced by fresh medium containing the PKC agonist. After incubation for 48 hours, the medium was collected, and both the soluble APP (sAPPα) and Aβ40 levels in the medium were determined by using the sAPPα and Aβ40 ELISA kits obtained from Biosource, Camarillo, Calif. according to the manufacturer's instructions.
In FIG. 1, the data are presented as percent of control±SEM.

[2] = system: HEK293 cells stably transfected with human APP; test: Aβ40 ELISA; format: cell-based; details: 24 h
Procedure: as §1
It is theorized, but not relied upon, that if APP synthesis is held relatively constant, the production of Aβ decreases if more of the APP is processed through the α-secretase pathway. To confirm that treatment with a present benzolactam enhances the α-secretase APP-processing pathway, compounds 9-14 were examined to determine whether the increased levels of sAPPα corresponds to a decrease in the production of Aβ40. The cells were treated for 24 h at concentrations ranging from 0.001 to 10 μM, and Aβ40 levels were measured by Aβ40 ELISA. […] In FIG. 2, the data are presented as in FIG. 1, with “*” and “**” having the same meaning. […] In general, there was good agreement between an ability of a present benzolactam to increase sAPPα and its ability to decrease Aβ40.

mouse PKCα = mouse PKCα (Mus musculus, UniProt P20444); test: PKC binding affinity
Procedure: ClogP and topological polar surface area (tPSA) values were calculated (Table 1). ClogP values for the tested compounds ranged from 0.92 to 4.67. The tPSA values were in the range of 61.80-90.90. […] The binding affinities of the compounds for mouse PKCα were determined as described previously. The Ki values for each of the compounds 2, 3, 6, 7, and 9-14, and known […] bryostatin 1 and SAHA are listed in Table 1.

primary cortical neurons [3] = test: HCA oxidative stress neuroprotection, cortical neurons (MTT); format: cell-based, rat; details: up to 20 μM, presence of HCA, 48 hours
Procedure: (§2) Primary neurons and cell culture: Cell cultures were obtained from the cerebral cortex of fetal Sprague-Dawley rats (embryonic day 17), as described previously. All experiments were initiated 24 hours after plating. Under these conditions, the cells are not susceptible to glutamate-mediated excitotoxicity.
Oxidative toxicity and neuron viability assays: For cytotoxicity studies, cells were rinsed with warm phosphate-buffered saline (PBS), then placed in minimum essential medium (Invitrogen, Carlsbad, Calif.) containing glucose (5.5 g L^−1), 10% fetal calf serum, L-glutamine (2 mM), and cysteine (100 μM). Oxidative stress was induced by the addition of the glutamate analogue HCA ([…]) to the media. HCA was diluted from 100-fold concentrated solutions that were adjusted to pH 7.5. In combination with HCA, TSA, SAHA, or the novel PKC-HDAC compounds were added at various concentrations. Viability was assessed after 48 hours by calceinacetoxymethyl ester (AM)/ethidium homodimer-1 staining (live/dead assay; Molecular Probes, Eugene, Oreg., USA) under fluorescence microscopy and the MTT assay method. Each bar represents the mean ±SEM of four replicates.
In this model of neurodegeneration, oxidative stress is induced by the presence of the glutamate analogue homocysteate (HCA) at a concentration of 5 mM, which depletes the cellular antioxidant glutathione through competitive inhibition of cysteine uptake at the level of the plasma membrane cysteine/glutamate antiporter system xc-. […]
(§3) In one embodiment, the present invention relates to a method of treating an individual suffering from a disease or condition wherein activation of PKC and inhibition of HDAC provides a benefit comprising administering a therapeutically effective amount of a compound of structural formula (I) to an individual in need thereof. […] Neuron survival was quantified by MTT assay, a colorimetric assay in which the amount of yellow MTT is reduced to purple formazan by active mitochondrial reductase enzymes in viable cells.

[4] = system: acetylated histone H4 in primary cortical neurons; test: Western blot of histone H4 acetylation; format: cell-based, rat
Procedure: as §2
Histone precipitation and Western blot analysis: Treated neurons (about 1×10^6) were incubated in hypotonic lysis buffer (1 mL) containing Tris-HCl (pH 8.0, 10 mM), KCl (1 mM), MgCl2 (1.5 mm), DTT (1 mM), aprotinin (1 mM), pepstatin (1 mM), and PMSF (0.4 mM) for 30 minutes, rotating at 4° C. Nuclei were pelleted by centrifugation for 10 minutes at 10,000 rpm (9000 g), resuspended in H2SO4 (0.4N, 200 μL), and rotated for 12 hours at 4° C. Following centrifugation at 13,000 rpm (16,000 g value) for 10 minutes, the supernatant was transferred to anew tube, and the histone proteins were precipitated by adding 100% trichloroacetic acid (TCA: 66 μL) dropwise followed by 30 minutes incubation on ice. Histone proteins were pelleted by centrifugation at 13,000 rpm (16,000 g) for 10 minutes, washed twice with ice-cold acetone, dried at room temperature for 20-40 minutes, and resuspended in H2O ([…]). Total histone proteins (20 μL) were boiled in Laemmli buffer and electrophoresed under reducing conditions on 15% polyacrylamide gel. Histone proteins were transferred to a nitrocellulose membrane (Bio-Rad, Hercules, Calif.). Nonspecific binding was inhibited by incubation in Tris-buffered saline with Tween 20 (TBST: 50 mM Tris-HCl pH 8.0, 0.9% NaCl, and 0.1% Tween 20) containing 5% nonfat dried milk for at least 1.5 hours. Primary antibodies against acetylated histone H4 or total histone H4 (Upstate) were diluted 1:1000 or 1:4000, respectively, in TBST containing 5% milk and incubated with the membrane for 3 hours at room temperature, followed by incubation with anti-rabbit horseradish peroxidase-conjugated secondary antibodies for 2 h at room temperature. Acetyl histone H4 and total histone H4 immunoreactivity was detected according to the enhanced chemiluminescent protocol (Amersham Biosciences, Fairfield, Conn.).
To illustrate the HDAC-inhibitory activity of the present benzolactams, an ability of the compounds to alter histone acetylation levels was examined. FIG. 3 contains Western blot analyses showing the effect of percent benzolactam compounds at 10 μM (FIG. 3A) and 20 μM (FIG. 3B) in the acetylation levels of histone H4. Cultures of primary cortical neurons were treated with the various benzolactam compounds (at 10 μM) for a period of 8 hours, and Western blot analysis then was performed using acetyl-histone H4-specific antibodies (FIG. 3A).

primary cortical neurons [5] = test: neuron viability in the absence of HCA (MTT); format: cell-based, rat; details: concentration not given
Procedure: as §2
Oxidative toxicity and neuron viability assays: For cytotoxicity studies, cells were rinsed with warm phosphate-buffered saline (PBS), then placed in minimum essential medium (Invitrogen, Carlsbad, Calif.) containing glucose (5.5 g L^−1), 10% fetal calf serum, L-glutamine (2 mM), and cysteine (100 μM). […] Viability was assessed after 48 hours by calceinacetoxymethyl ester (AM)/ethidium homodimer-1 staining (live/dead assay; Molecular Probes, Eugene, Oreg., USA) under fluorescence microscopy and the MTT assay method. […]
as §3

AD cells [6] = details: cited from earlier work
[7] = system: APP-[V717I] transgenic mice; details: in vivo; cited from earlier work
AD cells [8] = details: cited from earlier work; remark: listed apart in the source
[9] = mouse PKCα, read-out: K1[nm] ± SEM
[10] = concentration not given in the sentence (FIG. 3: 10 and 20 μM)

In the case of `CC(=O)SCCCCCCCCOc1ccc2c(c1)N(C)C(C(C)C)C(=O)NC(CO)C2` (stereo not drawn) [Compound 14, Thioacetic acid S-[8-(5-hydroxymethyl-2-isopropyl-1-methyl-3-oxo-1,2,3,4,5,6-hexahydrobenzole[e][1,4]diazocin-9-yloxy)octyl] ester], the sAPPα levels ([1]; 1-10 μm) is reported as “increase in sAPPα levels” and the Aβ40 levels ([2]; 1-10 μM) is reported as “significant decrease in Aβ40 levels”.
With `CC(C)[C@H]1C(=O)N[C@H](CO)Cc2ccc(OCCNC(=O)CCCCC3CCSS3)cc2N1C` (stereo partly drawn) [Compound 6, 1N-{2-[5-Hydroxymethyl-2-isopropyl-1-methyl-3-oxo-(2S,5S)-1,2,3,4,5,6-hexahydrobenzo[e][1,4]diazocin-9-yloxy]ethyl}-5-(1,2-dithiolan-3-yl)pentanamide] the Ki (mouse PKCα; [9]) was 148 ± 18 nM, the neuroprotection (primary cortical neurons [3]) was “no neuroprotection” and the “histone H4 acetylation” value [4, 10] was “failed to induce histone H4 acetylation”.
With `CC(/C=C/C(=O)NO)=C\[C@@H](C)C(=O)c1ccc(N(C)C)cc1` [TSA, trichostatin A] the “toxicity in neuron viability measurements” value (primary cortical neurons [5]) was “considerable dose dependent toxicity”.
In the case of `CC(=O)SCCCOc1ccc2c(c1)N(C)C(C(C)C)C(=O)NC(CO)C2` (stereo not drawn) [Compound 9, Thioacetic acid S-[3-(5-hydroxymethyl-2-isopropyl-1-methyl-3-oxo-1,2,3,4,5,6-hexahydrobenzole[e][1,4]diazocin-9-yloxy)propyl]ester], the sAPPα levels ([1]; 10 μm) is reported as “increase in sAPPα levels”, the “histone H4 acetylation” value ([4]; 10 μM, 8 hours) is reported as “less effective at inducing histone H4 acetylation” and the “histone H4 acetylation” value ([4]; 20 μM) is reported as “modest acetylation was observed”. For the same compound, the Aβ40 levels ([2]; 10 μM) was “significant decrease in Aβ40 levels”.
With `CC(=O)SCCCCOc1ccc2c(c1)N(C)C(C(C)C)C(=O)NC(CO)C2` (stereo not drawn) [Compound 10, Thioacetic acid S-[4-(5-hydroxymethyl-2-isopropyl-1-methyl-3-oxo-1,2,3,4,5,6-hexahydrobenzo[e][1,4]diazocin-9-yloxy)butyl] ester] the sAPPα levels ([1]; 1 nM) was “statistically significant elevation in sAPPα”, the “histone H4 acetylation” value ([4]; 10 μM, 8 hours) was “less effective at inducing histone H4 acetylation” and the “histone H4 acetylation” value ([4]; 20 μM) was “modest acetylation was observed”. For the same compound, the Aβ40 levels ([2]; 10 μM) was “significant decrease in Aβ40 levels”.
For `CC(=O)SCCCCCCOc1ccc2c(c1)N(C)C(C(C)C)C(=O)NC(CO)C2` (stereo not drawn) [Compound 12, Thioacetic acid S-[6-(5-hydroxymethyl-2-isopropyl-1-methyl-3-oxo-1,2,3,4,5,6-hexahydrobenzo[e][1,4]diazocin-9-yloxy)hexyl] ester], the Ki (mouse PKCα; [9]) was 8.7 ± 0.7 nM, the sAPPα levels ([1]; 1-10 μm) was “increase in sAPPα levels” and the Aβ40 levels ([2]; 10 μM) was “significant decrease in Aβ40 levels”.
With `CC(=O)SCCCCCCCOc1ccc2c(c1)N(C)C(C(C)C)C(=O)NC(CO)C2` (stereo not drawn) [Compound 13, Thioacetic acid S-[7-(5-hydroxymethyl-2-isopropyl-1-methyl-3-oxo-1,2,3,4,5,6-hexahydrobenzo[e][1,4]diazocin-9-yloxy)heptyl] ester] the Ki (mouse PKCα) was 4.5 ± 0.4 nM, the sAPPα levels ([1]; 10 μm) was “increase in sAPPα levels” and the Aβ40 levels ([2]; 1-10 μM) was “significant decrease in Aβ40 levels”.
In the case of `C=CCCCCCOc1ccc2c(c1)N(C)C(C(C)C)C(=O)NC(CO)C2` (centres unmarked) [Compound 3, 9-Hept-6-enyloxy-5-hydroxymethyl-2-isopropyl-1-methyl-1,4,5,6-tetrahydro-2H-benzo[e][1,4]diazocin-3-one], the neuroprotection (primary cortical neurons [3]) is reported as “no neuroprotection” and the “histone H4 acetylation” value ([4]; 20 μM) is reported as “did not increase histone H4 acetylation”.
With `CC(C)[C@H]1C(=O)N[C@H](CO)Cc2ccc(OC(=O)CCCCC3CCSS3)cc2N1C` (stereo partly drawn) [Compound 7, (2S,5S)-1,2,3,4,5,6-Hexahydro-5-(hydroxymethyl)-2-isopropyl-1-methyl-3-oxobenzo[e][1,4]diazocin-9-yl-5-(1,2-dithiolan-3-yl)pentanoate] the Ki (mouse PKCα; [9]) was 5.7 ± 1 nM, the neuroprotection (primary cortical neurons [3]) was “no neuroprotection” and the “histone H4 acetylation” value [4, 10] was “failed to induce histone H4 acetylation”.
For `CC(=O)SCCCCCOc1ccc2c(c1)N(C)C(C(C)C)C(=O)NC(CO)C2` (stereo not drawn) [Compound 11, Thioacetic acid S-[5-(5-hydroxymethyl-2-isopropyl-1-methyl-3-oxo-1,2,3,4,5,6-hexahydrobenzo[e][1,4]diazocin-9-yloxy)pentyl] ester], the sAPPα levels ([1]; 10 μm) was “increase in sAPPα levels” and the Aβ40 levels ([2]; 10 μM) was “significant decrease in Aβ40 levels”.
In the case of `CCCCCCCCC#Cc1ccc2c(c1)CC(CO)NC(=O)C(C(C)C)N2C` (centres unmarked) [BL, 8-(1-decynyl)benzolactam], the “secretion of sAPPα” value (AD cells [6]) is listed as “enhances the secretion of sAPPα”, the “Aβ40 in the brains” value [7] is listed as “decrease” and the “amount of sAPPα in the brains” value [7] is listed as “significantly increase”. The “K+ channel defects” value (AD cells [8]) was “reverses”.
`CC(C)[C@H]1C(=O)N[C@H](CO)Cc2ccc(O)cc2N1C` [Compound 2, 9-Hydroxy-5-hydroxymethyl-2-isopropyl-1-methyl-(2S,5S)-1,4,5,6-tetrahydro-2H-benzo[e][1,4]diazocin-3-one] showed a Ki (mouse PKCα) of 4840 ± 320 nM.
